In patent US9340590B2 (priority 2011, dated 2016):
Positions of bridges follow the written chain, without caps; N, C: chain ends. Non-standard residues stand in square brackets, D forms with d. Residues, ends and D or L forms follow the SMILES beside them. Lys(Me2) = CN(C)CCCC[C@H](N)C(=O)O

What was measured:
hNav1.5 = hNav1.5 (Homo sapiens, UniProt Q14524); experiment: cell-based
hNav1.7 = hNav1.7 (Homo sapiens, UniProt Q15858); experiment: cell-based; settings: Nav1.7 Use IC50
hNav1.7, sequence (Q15858 whole entry, looked up): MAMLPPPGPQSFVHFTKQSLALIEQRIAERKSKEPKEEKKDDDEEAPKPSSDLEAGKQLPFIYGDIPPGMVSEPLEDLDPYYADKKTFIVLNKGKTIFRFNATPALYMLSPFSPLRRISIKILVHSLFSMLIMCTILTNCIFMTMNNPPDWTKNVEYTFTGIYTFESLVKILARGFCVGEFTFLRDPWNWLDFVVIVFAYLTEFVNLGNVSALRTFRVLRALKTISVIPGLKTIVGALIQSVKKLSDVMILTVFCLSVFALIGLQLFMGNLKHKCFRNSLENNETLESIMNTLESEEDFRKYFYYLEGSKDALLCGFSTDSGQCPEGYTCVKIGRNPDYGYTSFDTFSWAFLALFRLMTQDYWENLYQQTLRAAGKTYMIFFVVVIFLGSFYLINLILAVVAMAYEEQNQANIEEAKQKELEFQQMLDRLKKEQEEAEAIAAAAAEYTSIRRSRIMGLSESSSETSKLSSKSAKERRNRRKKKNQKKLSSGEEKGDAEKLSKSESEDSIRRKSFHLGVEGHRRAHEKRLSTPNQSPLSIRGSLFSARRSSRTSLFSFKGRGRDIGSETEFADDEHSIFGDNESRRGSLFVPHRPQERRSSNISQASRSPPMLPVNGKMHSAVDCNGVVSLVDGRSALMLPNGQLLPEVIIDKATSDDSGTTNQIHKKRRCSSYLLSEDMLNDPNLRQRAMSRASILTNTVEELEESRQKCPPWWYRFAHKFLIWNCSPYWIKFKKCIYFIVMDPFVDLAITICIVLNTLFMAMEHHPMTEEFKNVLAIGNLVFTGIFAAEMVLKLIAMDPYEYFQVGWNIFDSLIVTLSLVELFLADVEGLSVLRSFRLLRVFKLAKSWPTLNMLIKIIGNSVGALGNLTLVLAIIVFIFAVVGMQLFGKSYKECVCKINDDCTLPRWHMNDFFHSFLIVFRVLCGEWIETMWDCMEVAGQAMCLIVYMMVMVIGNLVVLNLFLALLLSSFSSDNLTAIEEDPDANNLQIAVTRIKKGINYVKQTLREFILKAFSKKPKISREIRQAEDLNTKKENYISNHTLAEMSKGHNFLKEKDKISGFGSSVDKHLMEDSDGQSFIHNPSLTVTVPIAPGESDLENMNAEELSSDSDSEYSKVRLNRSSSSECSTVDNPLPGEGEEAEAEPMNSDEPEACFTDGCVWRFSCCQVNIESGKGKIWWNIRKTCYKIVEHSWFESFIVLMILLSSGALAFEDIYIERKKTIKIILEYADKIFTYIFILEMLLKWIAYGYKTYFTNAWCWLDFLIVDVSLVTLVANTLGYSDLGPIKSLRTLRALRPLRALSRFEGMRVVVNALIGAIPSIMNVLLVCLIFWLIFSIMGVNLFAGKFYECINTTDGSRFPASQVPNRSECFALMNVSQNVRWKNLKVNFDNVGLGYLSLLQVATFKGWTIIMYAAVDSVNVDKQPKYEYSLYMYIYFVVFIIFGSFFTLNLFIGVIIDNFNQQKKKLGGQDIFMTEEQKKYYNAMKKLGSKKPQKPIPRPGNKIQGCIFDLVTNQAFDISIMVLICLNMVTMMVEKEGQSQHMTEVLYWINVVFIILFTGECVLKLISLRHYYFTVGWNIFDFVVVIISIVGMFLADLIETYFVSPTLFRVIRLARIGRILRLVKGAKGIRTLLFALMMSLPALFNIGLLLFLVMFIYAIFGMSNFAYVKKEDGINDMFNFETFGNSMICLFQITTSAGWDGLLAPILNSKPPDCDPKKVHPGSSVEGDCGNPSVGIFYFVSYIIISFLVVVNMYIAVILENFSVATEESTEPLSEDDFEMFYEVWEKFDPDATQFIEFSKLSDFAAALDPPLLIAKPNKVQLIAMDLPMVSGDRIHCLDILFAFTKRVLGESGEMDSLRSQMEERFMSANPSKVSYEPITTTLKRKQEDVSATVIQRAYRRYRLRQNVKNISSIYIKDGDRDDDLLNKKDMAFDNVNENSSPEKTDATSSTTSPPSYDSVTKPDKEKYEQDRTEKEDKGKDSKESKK

hNav1.5, sequence (Q14524 whole entry, looked up): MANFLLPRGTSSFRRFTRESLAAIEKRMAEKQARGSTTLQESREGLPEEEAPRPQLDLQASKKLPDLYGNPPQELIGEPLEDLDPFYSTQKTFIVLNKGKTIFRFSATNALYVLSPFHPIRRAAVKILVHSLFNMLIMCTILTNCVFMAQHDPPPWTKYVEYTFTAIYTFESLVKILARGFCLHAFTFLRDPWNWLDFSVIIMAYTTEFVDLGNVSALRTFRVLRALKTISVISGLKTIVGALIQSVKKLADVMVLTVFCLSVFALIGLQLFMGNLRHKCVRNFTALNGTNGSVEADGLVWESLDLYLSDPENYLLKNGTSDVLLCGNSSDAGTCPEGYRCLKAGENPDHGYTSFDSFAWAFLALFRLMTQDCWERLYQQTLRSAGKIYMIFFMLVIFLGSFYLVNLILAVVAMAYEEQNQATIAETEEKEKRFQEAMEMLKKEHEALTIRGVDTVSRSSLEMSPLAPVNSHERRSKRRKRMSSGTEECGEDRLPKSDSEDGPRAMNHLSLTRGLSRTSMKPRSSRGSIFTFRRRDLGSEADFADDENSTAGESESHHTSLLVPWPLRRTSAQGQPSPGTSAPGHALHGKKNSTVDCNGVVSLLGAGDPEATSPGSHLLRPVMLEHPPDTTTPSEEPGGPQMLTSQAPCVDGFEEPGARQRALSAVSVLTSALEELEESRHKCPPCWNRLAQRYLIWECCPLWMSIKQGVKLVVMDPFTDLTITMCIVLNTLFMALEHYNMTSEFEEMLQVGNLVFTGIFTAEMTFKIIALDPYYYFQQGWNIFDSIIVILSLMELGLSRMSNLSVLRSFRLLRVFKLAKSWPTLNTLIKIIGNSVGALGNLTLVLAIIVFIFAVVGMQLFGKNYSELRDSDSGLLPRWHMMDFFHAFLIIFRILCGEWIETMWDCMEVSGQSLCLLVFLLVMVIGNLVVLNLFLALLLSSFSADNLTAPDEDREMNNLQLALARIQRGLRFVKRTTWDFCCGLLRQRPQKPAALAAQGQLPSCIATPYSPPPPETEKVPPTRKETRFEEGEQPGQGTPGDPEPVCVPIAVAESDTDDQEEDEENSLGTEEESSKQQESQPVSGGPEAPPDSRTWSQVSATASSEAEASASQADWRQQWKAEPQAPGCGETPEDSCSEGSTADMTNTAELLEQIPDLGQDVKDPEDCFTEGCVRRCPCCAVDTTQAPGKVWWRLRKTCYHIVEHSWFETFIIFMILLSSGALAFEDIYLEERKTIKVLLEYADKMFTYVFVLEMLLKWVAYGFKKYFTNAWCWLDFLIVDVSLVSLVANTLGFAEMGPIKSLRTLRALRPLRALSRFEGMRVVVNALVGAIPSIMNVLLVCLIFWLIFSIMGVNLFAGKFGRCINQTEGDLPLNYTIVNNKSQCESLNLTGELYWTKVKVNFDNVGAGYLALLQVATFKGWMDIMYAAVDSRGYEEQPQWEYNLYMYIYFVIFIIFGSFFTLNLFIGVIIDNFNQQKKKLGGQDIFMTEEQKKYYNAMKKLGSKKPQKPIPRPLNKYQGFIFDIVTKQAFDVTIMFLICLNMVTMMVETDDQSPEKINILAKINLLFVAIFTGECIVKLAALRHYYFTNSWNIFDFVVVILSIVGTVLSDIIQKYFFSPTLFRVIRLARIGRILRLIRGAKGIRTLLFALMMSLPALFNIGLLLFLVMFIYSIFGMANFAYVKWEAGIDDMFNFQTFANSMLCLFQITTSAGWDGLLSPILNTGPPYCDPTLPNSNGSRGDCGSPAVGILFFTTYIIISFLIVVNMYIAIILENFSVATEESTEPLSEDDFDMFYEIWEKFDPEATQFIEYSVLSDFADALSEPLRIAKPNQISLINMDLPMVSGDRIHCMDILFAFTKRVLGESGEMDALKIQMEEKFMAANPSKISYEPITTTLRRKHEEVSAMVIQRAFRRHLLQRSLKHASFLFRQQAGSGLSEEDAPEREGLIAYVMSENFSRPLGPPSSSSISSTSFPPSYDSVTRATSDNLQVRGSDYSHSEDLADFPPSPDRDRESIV

SMILES | IC50 (hNav1.5) [nM] | IC50 (hNav1.7) [nM]
CC[C@H](C)[C@@H]1NC(=O)[C@@H]2CSSC[C@@H]3NC(=O)[C@H](C(C)C)NC(=O)[C@H](CC(C)C)NC(=O)[C@H](CC(N)=O)NC(=O)[C@@H]4CCCN4C(=O)[C@H](CCCNC(=N)N)NC(=O)[C@H](CSSC[C@H](NC(=O)[C@@H](N)CC(=O)O)C(=O)N[C@@H](CC(C)C)C(=O)NCC(=O)N[C@@H](Cc4ccccc4)C(=O)N[C@@H](CCSC)C(=O)N[C@@H](CCCNC(=N)N)C(=O)N[C@@H](CCCCN)C(=O)N2)NC(=O)[C@H](CSSC[C@@H](C(=O)N[C@@H](CCCCN)C(=O)N[C@@H](Cc2ccc(O)cc2)C(=O)N[C@H](C(=O)N[C@@H](Cc2ccccc2)C(N)=O)C(C)C)NC(=O)[C@H](Cc2c[nH]c4ccccc24)NC(=O)[C@H](CCCCN)NC(=O)[C@H](Cc2c[nH]cn2)NC(=O)[C@H]([C@@H](C)O)NC(=O)[C@H](CCC(=O)O)NC(=O)[C@H](CO)NC3=O)NC(=O)[C@H](CCCCN)NC(=O)[C@H](CC(=O)O)NC(=O)[C@H](CC(N)=O)NC(=O)[C@H](CC(=O)O)NC(=O)[C@@H]2CCCN2C1=O [[Glu25]GpTx-1(1-34)] (H-DCLGFMRKCIPDNDKCCRPNLVCSETHKWCKYVF-NH2; disulfide 2-17, 9-23, 16-30) | > 10000 | 28
CC[C@H](C)[C@@H]1NC(=O)[C@@H]2CSSC[C@@H]3NC(=O)[C@H](C(C)C)NC(=O)[C@H](CC(C)C)NC(=O)[C@H](CC(N)=O)NC(=O)[C@@H]4CCCN4C(=O)[C@H](CCCNC(=N)N)NC(=O)[C@H](CSSC[C@H](NC(=O)[C@@H](N)CC(=O)O)C(=O)N[C@@H](CC(C)C)C(=O)NCC(=O)N[C@@H](Cc4ccccc4)C(=O)N[C@@H](CCSC)C(=O)N[C@@H](CCCNC(=N)N)C(=O)N[C@@H](CCCCN)C(=O)N2)NC(=O)[C@H](CSSC[C@@H](C(=O)N[C@@H](CCCCN)C(=O)N[C@@H](Cc2ccc(O)cc2)C(=O)N[C@H](C(=O)N[C@@H](Cc2ccccc2)C(N)=O)C(C)C)NC(=O)[C@H](Cc2c[nH]c4ccccc24)NC(=O)[C@H](CCCCN)NC(=O)[C@H](Cc2cnc[nH]2)NC(=O)[C@H](Cc2cnc[nH]2)NC(=O)[C@H](CCCNC(=N)N)NC(=O)[C@H](CO)NC3=O)NC(=O)[C@H](CCCCN)NC(=O)[C@H](CC(=O)O)NC(=O)[C@H](CC(N)=O)NC(=O)[C@H](CC(=O)O)NC(=O)[C@@H]2CCCN2C1=O [[His26]GpTx-1(1-34)] (H-DCLGFMRKCIPDNDKCCRPNLVCSRHHKWCKYVF-NH2; disulfide 2-17, 9-23, 16-30) | 4950 | 3
CC[C@H](C)[C@@H]1NC(=O)[C@@H]2CSSC[C@@H]3NC(=O)[C@H](C(C)C)NC(=O)[C@H](CC(C)C)NC(=O)[C@H](CC(N)=O)NC(=O)[C@@H]4CCCN4C(=O)[C@H](CCCNC(=N)N)NC(=O)[C@H](CSSC[C@H](NC(=O)[C@@H](N)CC(=O)O)C(=O)N[C@@H](CC(C)C)C(=O)NCC(=O)N[C@@H](Cc4ccccc4)C(=O)N[C@@H](CCSC)C(=O)N[C@@H](CCCNC(=N)N)C(=O)N[C@@H](CCCCN)C(=O)N2)NC(=O)[C@H](CSSC[C@@H](C(=O)N[C@@H](CCCCN)C(=O)N[C@@H](Cc2ccc(O)cc2)C(=O)N[C@H](C(=O)N[C@@H](Cc2ccccc2)C(N)=O)C(C)C)NC(=O)[C@H](Cc2c[nH]c4ccccc24)NC(=O)[C@H](CCCCN)NC(=O)[C@H](Cc2c[nH]cn2)NC(=O)[C@H]([C@@H](C)O)NC(=O)[C@H](CCCCN(C)C)NC(=O)[C@H](CO)NC3=O)NC(=O)[C@H](CCCCN)NC(=O)[C@H](CC(=O)O)NC(=O)[C@H](CC(N)=O)NC(=O)[C@H](CC(=O)O)NC(=O)[C@@H]2CCCN2C1=O [[K(Me2)25]GpTx-1(1-34)] (H-DCLGFMRKCIPDNDKCCRPNLVCS[Lys(Me2)]THKWCKYVF-NH2; disulfide 2-17, 9-23, 16-30) | 13300 | 8
